Measured values as given in ChEMBL document CHEMBL1201862, “PubChem BioAssay data set” (2004).
Activity calls are given as the source filed them. Rule as the data show it, for most assays here: actives have a measured EC50 and inactives only a lower limit.

How the values were obtained:
[1] = target: T1, RNA-binding protein pos-1 (Caenorhabditis elegans, UniProt G5EF15); experiment: disruptors of C. elegans POS-1 RNA interaction – biochemical, fluorescence polarization, dose response (AID 1964);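 also: purified POS-1 fused to maltose binding protein made in E. coli; potency of compounds blocking POS-1 binding to fluorescent RNA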
T1 sequence (G5EF15 whole entry): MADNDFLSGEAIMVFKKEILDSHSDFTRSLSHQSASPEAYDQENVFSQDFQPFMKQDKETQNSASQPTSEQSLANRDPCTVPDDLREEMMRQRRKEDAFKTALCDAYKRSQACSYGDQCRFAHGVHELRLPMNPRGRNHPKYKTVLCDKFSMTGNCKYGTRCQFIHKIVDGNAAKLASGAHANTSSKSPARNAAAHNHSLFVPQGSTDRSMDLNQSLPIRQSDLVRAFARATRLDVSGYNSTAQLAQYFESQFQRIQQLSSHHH

[2] = target: T2, Zinc finger protein mex-5 (Caenorhabditis elegans, UniProt Q9XUB2); experiment: potency of MEX-5 RNA-binding blockers – biochemical, C. elegans, fluorescence polarization, dose response (AID 1960)
T2 sequence (Q9XUB2 whole entry): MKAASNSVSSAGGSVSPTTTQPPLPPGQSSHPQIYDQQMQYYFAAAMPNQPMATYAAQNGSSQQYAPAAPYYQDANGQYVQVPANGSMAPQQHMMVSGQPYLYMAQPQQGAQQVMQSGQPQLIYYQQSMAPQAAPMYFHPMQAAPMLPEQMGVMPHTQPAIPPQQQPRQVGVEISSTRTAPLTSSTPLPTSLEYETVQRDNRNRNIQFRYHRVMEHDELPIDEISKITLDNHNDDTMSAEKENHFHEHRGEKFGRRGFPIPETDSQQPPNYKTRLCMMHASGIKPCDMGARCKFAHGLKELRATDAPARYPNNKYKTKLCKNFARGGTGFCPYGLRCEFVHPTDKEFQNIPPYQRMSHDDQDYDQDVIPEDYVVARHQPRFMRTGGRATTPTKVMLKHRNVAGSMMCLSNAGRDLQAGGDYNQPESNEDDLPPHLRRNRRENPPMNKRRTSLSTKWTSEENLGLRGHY

[3] = target: T3, Carboxy-terminal domain RNA polymerase II polypeptide A small phosphatase 1 (Homo sapiens, UniProt Q9GZU7); experiment: CTDSP1 inhibitors, concentration-response, biochemical, absorbance readout, ultra-high-throughput screen actives (AID 540297); type: functional
T3 sequence (Q9GZU7 whole entry): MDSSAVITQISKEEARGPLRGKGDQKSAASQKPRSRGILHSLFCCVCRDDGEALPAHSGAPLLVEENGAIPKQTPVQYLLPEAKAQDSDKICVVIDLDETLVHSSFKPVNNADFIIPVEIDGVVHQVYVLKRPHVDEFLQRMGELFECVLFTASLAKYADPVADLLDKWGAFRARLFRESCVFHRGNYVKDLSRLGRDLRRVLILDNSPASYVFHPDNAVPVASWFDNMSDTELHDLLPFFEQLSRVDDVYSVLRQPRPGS

Protein RecA = target: T4, Protein RecA (Mycobacterium tuberculosis, UniProt P9WHJ3); experiment: Fluorescence Cell-Free Homogeneous Dose Retest to Identify Inhibitors of RecA-Intein Splicing Activity. [Related pubchem assays (depositor defined):AID2097, AID2223, AID489010, AID492950]; type: functional
T4 sequence (P9WHJ3 whole entry): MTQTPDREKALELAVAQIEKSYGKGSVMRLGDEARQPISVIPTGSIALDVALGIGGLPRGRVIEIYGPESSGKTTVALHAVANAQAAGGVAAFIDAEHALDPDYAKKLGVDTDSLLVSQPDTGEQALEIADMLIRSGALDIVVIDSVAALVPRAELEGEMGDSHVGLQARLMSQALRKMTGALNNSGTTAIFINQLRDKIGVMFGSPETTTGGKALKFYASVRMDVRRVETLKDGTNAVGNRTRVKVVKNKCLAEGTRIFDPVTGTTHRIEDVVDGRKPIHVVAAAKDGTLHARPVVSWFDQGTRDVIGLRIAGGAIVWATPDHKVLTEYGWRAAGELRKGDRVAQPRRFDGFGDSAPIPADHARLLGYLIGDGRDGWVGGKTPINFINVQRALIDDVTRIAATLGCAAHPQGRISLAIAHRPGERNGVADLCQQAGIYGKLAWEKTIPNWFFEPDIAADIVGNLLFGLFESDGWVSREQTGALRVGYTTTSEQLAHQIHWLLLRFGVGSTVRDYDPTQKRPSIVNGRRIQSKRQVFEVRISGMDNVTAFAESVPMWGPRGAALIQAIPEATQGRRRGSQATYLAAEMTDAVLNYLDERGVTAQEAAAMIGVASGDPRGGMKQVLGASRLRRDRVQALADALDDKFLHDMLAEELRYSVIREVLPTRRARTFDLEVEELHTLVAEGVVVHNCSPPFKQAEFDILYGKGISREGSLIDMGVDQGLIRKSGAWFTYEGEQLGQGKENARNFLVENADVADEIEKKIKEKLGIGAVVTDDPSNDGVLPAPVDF

[4] = target: T5, Replicative DNA helicase DnaB (Mycobacterium tuberculosis, UniProt P9WMR3); experiment: DnaB intein splicing inhibitors, dose response, biochemical, cell-free fluorescence (AID 449749); type: functional
T5 sequence (P9WMR3 whole entry): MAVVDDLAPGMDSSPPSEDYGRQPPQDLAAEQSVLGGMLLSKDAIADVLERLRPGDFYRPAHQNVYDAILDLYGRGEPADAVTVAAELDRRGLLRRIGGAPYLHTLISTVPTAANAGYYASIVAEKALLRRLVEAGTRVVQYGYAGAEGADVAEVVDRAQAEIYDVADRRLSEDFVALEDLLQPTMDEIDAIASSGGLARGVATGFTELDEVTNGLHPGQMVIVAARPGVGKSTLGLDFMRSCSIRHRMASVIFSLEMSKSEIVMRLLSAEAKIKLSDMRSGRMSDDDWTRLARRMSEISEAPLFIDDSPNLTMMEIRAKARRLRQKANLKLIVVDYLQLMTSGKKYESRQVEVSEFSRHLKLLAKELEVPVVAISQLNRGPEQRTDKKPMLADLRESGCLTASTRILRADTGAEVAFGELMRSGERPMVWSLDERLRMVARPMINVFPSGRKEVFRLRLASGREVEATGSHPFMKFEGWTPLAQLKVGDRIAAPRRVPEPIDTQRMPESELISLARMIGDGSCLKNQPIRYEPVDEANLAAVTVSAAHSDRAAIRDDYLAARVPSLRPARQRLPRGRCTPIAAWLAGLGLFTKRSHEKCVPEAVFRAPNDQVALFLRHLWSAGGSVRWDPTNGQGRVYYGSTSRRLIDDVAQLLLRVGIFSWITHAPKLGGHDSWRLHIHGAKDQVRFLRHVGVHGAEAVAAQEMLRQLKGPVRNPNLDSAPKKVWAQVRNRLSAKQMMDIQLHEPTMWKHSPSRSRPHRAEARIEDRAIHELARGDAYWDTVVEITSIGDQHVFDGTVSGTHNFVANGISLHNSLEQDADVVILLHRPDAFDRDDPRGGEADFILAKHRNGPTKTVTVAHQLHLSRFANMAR

cells [5] = type: functional, cell-based
cells [6] = type: functional, cell-based; remark: listed apart in the source
[7] = target: T6, Heat shock factor protein 1 (Mus musculus, UniProt P38532); experiment: decrease of HSF1-responsive luciferase luminescence – cell-based, NIH3T3, dose retest, confirmation (AID 2382); type: functional;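 also: NIH3T3 fibroblasts with HSF1-driven luciferase reporter stressed by proteasome inhibitor MG132; luminescence from HSF1-driven luciferase expression after 8 hours of MG132 stress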
T6 sequence (P38532 whole entry): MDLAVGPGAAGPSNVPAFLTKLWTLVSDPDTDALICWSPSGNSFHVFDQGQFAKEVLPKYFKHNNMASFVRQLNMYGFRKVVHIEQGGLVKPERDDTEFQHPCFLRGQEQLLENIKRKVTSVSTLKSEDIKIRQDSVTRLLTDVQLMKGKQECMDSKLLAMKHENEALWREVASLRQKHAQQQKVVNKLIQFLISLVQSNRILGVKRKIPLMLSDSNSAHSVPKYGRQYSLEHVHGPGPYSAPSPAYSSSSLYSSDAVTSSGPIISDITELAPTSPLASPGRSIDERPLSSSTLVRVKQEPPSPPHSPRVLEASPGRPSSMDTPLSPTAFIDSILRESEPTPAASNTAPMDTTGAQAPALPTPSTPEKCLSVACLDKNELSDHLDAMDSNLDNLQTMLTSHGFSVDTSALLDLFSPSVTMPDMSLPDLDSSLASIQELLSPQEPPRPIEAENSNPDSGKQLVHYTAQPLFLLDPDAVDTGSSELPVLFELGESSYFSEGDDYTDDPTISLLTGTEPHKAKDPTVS

H9c2 = experiment: cells; type: functional, cell-based; conditions: Rattus norvegicus, H9c2, Myocardium
Cytochrome P450 3A4 = Cytochrome P450 3A4 (Homo sapiens, UniProt P08684);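 also: CYP3A4 tested as one member of a cytochrome P450 panel screen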
Cytochrome P450 3A4, sequence (P08684 whole entry): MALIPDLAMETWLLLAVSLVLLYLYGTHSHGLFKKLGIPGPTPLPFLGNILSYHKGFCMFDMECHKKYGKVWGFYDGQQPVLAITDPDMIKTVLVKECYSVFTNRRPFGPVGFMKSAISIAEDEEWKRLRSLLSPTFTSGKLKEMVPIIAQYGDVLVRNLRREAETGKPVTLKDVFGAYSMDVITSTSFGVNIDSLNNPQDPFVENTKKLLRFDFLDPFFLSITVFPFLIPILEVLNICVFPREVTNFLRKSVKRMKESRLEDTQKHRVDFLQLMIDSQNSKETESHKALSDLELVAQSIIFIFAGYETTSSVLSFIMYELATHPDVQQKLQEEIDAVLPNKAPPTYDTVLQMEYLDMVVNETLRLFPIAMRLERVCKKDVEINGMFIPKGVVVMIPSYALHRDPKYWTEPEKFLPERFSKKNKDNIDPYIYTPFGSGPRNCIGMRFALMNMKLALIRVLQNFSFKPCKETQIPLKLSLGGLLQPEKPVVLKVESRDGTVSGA

Cytochrome P450 2C9 = Cytochrome P450 2C9 (Homo sapiens, UniProt P11712)
Cytochrome P450 2C9, sequence (P11712 whole entry): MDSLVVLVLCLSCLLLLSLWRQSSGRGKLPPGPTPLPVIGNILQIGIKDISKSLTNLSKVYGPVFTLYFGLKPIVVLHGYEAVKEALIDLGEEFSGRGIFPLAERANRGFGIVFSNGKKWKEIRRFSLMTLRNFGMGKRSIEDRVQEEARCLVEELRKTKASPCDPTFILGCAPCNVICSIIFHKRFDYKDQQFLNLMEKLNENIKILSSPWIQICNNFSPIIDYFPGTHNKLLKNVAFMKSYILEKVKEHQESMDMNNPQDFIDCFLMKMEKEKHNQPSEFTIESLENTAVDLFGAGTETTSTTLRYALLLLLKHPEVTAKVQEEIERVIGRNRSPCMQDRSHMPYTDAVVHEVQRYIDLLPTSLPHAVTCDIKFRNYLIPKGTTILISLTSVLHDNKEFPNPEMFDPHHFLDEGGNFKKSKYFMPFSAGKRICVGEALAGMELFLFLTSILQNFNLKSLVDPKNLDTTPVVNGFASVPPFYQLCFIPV

[8] = viability of uninfected HEp-2 cells – cell-based, HTS, cytotoxicity control for RSV inhibitor project, dose response (AID 2410); type: functional; conditions: human respiratory syncytial virus
[9] = Luminescence Cell-Based Dose Response HTS to Identify Activators of Luciferase Translation or Activity in H4 […] Cells. [Related pubchem assays: 1829 (Project Summary), 1814 (Primary HTS)]; type: functional
H4 = experiment: Luminescence Cell-Based Dose Response HTS to Identify Activators of 5'UTR Stem-Loop Driven Prion Protein mRNA Translation in H4 Neuroglioblastoma Cells. [Related pubchem assays: 1829 (Project Summary), 1814 (Primary HTS)]; type: functional; conditions: Homo sapiens

## Cc1cccc(C)c1NC(=O)CN1C(=O)S/C(=C\c2cccn2-c2cccc(C(=O)O)c2)C1=O
[1]
  EC50: > 300 µM (not active)
[2]
  EC50: 60 µM (active)
[3]
  IC50: 6.71 µM (active)

## CCCc1n[nH]c2c1C(c1cccc(OC(=O)c3ccco3)c1)C(C#N)=C(N)O2 (configuration not stated)
Protein RecA
  EC50: 4.91 µM (active)
[4]
  AC50: 5.48 µM (active)

## O=C(Nc1ccnn1C1CCN(CC2CC=CCC2)CC1)c1ccccc1 (configuration not stated)
[1]
  EC50: 43.2 µM (active)
[2]
  EC50: 52.3 µM (active)

## COC(=O)c1[nH]c2ccccc2c1/C=C1\C(=O)NC(=O)N(c2cc(OC)ccc2OC)C1=O
Cells [5]
  EC50: 73.1 µM (active)
Cells [6]
  EC50: > 350 µM (not active)

## O=C(O)CSc1ccccc1C(=O)O
[7]
  EC50: > 195 µM (not active)

## Cc1cc(Cl)ccc1OC(C)C(=O)NC(C)C1CCCO1 (configuration not stated)
[7]
  EC50: > 195 µM (not active)

## Cc1cc(N2CCC(C)CC2)n2ncc(-c3ccccc3)c2n1
[7]
  EC50: < 0.16 µM (active)

## COc1ccccc1/C=C/CN1CCC(Oc2cc(C(=O)NC3CC3)ccc2OC)CC1
[7]
  EC50: > 195 µM (not active)

## C#CCOc1ccc(Br)cc1C(c1c(C)n[nH]c1O)c1c(C)n[nH]c1O
Protein RecA
  EC50: 1.03 µM (active)
[4]
  AC50: 0.973 µM (active)

## O=C(COC(=O)c1ccc2c(c1Cl)C(=O)c1ccccc1C2=O)NC1CC1
Protein RecA
  EC50: 12.9 µM (active)
[4]
  AC50: 26.2 µM (active)

## CCc1ccc(C2C(=O)c3ccccc3C2=O)cc1
Cells [5]
  EC50: 30.8 µM (active)
Cells [6]
  EC50: > 350 µM (not active)

## Cc1nc2c(ncn2-c2ccccc2)c(=O)n1NC(=O)CN1CCOCC1
[7]
  EC50: > 195 µM (not active)

## CCCOc1ccc(C(=O)C2=C(O)C(=O)N(CCN(C)C)C2c2ccc(O)c(OC)c2)cc1 (configuration not stated)
[7]
  EC50: > 195 µM (not active)

## COCCN1CCC(CNCc2c(C(=O)N3CCCCC3)nc3c(C)cccn23)C1 (configuration not stated)
[1]
  EC50: > 300 µM (not active)
[2]
  EC50: > 300 µM (not active)

## CCc1ccc(OCc2cccc(C(=O)N/N=C\c3cnn(C)c3C)c2)cc1
[3]
  IC50: 9.07 µM (active)

## NN1C(=O)/C(=C2/Sc3ccccc3N2CCCS(=O)(=O)O)SC1=S
[3]
  IC50: 8.53 µM (active)

## O=C(COC(=O)CCc1nc(O)c2ccccc2n1)Nc1c(Cl)cccc1C(F)(F)F
H9c2
  IC50: > 79 µM (inactive)
[7]
  EC50: > 195 µM (not active)

## O=C1CCN(S(=O)(=O)c2ccccc2)N1
Cytochrome P450 3A4
  AC50: 28.2 µM (inconclusive)
Protein RecA
  EC50: 3.73 µM (active)
Cytochrome P450 2C9
  AC50: 12.6 µM (inconclusive)
[4]
  AC50: 31.2 µM (active)

## Cc1sc(-c2ccccn2)nc1OC(=O)c1cccc(Cl)c1Cl
[1]
  EC50: > 300 µM (not active)
[2]
  EC50: > 300 µM (not active)

## CCOC(=O)c1c(C)oc2c1c1c(c3ccccc32)OCN(CCCC(=O)O)C1
[8]
  CC50: 43.6 µM (active)
Protein RecA
  EC50: 4.11 µM (active)
[4]
  AC50: > 120 µM (inactive)
[9]
  EC50: 22.8 µM (active)
H4
  EC50: 11 µM (active)

## COc1cccc(C(=O)c2cn(CC(=O)NCc3ccco3)c3nc(C)ccc3c2=O)c1
[3]
  IC50: 11.2 µM (active)

## Cc1ccccc1NC(=O)CN1C(=O)S/C(=C\c2cccn2-c2cccc(C(=O)O)c2)C1=O
[1]
  EC50: > 300 µM (not active)
[2]
  EC50: > 300 µM (not active)
[3]
  IC50: 4.23 µM (active)

## COc1cccc(-n2c(N)c(-c3nc4ccccc4[nH]3)sc2=S)c1
[7]
  EC50: > 195 µM (not active)

## Cc1ccc(C2C(C#N)=C(N)Oc3[nH]nc(C)c32)cc1 (configuration not stated)
Protein RecA
  EC50: 3.56 µM (active)
[4]
  AC50: 7.89 µM (active)

## COC(=O)C1=C(COc2ccccc2)NC(=O)NC1c1ccc2ccccc2c1 (configuration not stated)
[3]
  IC50: 13.8 µM (active)

## CCOC(=O)c1ccc(NC(=O)CC2COc3ccccc3O2)cc1 (configuration not stated)
[7]
  EC50: > 195 µM (not active)

## COC(=O)C1C(=O)N2CCCSC2=C(C#N)C1c1cccs1 (configuration not stated)
Cells [5]
  EC50: > 350 µM (not active)
Cells [6]
  EC50: > 350 µM (not active)

## O=C(COC(=O)C1CCCC1)Nc1ncc(Cl)cc1Cl
[1]
  EC50: > 300 µM (not active)
[2]
  EC50: 34.3 µM (active)

## O=C(N/N=C/c1ccccn1)c1cc(-c2ccc(Br)s2)n[nH]1
[3]
  IC50: 8.5 µM (active)
